This note sets out measurements from patent publication US8841257B2, “Inhibitors of STAT3 and uses thereof” (Board of Regents, The University of Texas System, priority 2009, dated 2014).

Entries after “also recorded” stand apart in the source; their conditions may differ.

The test system of one data set is Akt. Briefly: pAkt levels in BT20 cells. Particulars: 5 μM; BT20, constitutively activated Akt. Format: cell-based.
In data set [1] the test system is SUM149 inflammatory breast tumor cells. The data set is described as follows: Anchorage-independent growth in soft agar, SUM149. The settings on record: 28 days. Format: cell-based. As for the experimental part:
(§1) Assay for anchorage-independent growth in soft agar Cells (5×10^5) were suspended in 1× DMEM/HEPES, 10% heat-inactivated FBS, 0.13% bicarbonate, and 0.33% BBL agar. The cells were plated on 1% base agar plates (60 mm) containing 1× DMEM/HEPES, 10% heat-inactivated FBS, and 1% BBL agar. Fresh serum-containing medium was fed to the cells on 3-day intervals. The dishes were then incubated at 37° C. with 5% CO2 for 28 days. The colonies that grew in soft agar were photographed and counted. Data are expressed as the number of colonies formed per plate±S.E.M. and three plates were counted per cell line.

Data set [2] relates to MDA7, MDA-MB-231, SUM149, and SUM190. Briefly: Anchorage-independent growth in soft agar, four breast tumor models. Particulars: MDA7, MDA-MB-231, SUM149, SUM190; 28 days. Format: cell-based. As for the experimental part:
as §1

In data set [3] the test system is SUM149 and MDA-MB-231 cells. The data set is described as follows: In vitro invasion of an artificial basement membrane. Format: cell-based, human. The settings on record: 72 hours. How it is done:
Effect of prodrugs on in vitro invasion of an artificial basement membrane by human breast cancer cells. SUM149 and MDA-MB-231 cells were trypsinized, resuspended in serum-supplemented medium, and counted. Cells were then washed 3 times with serum-free medium. Plates (6-well) compatible with transwell inserts with 8 μm pore-size polycarbonate filters (Fisher Scientific) were coated with Matrigel in cold serum-free DMEM/F12 at a final concentration of 0.7 mg/mL and held at room temperature for 40 minutes. Cells (in 500 μL serum-free medium) were added into the transwell inserts and incubated for 72 hours in the absence or presence 5 μM prodrug in DMSO (1% by volume). For a control, 10% FBS was used to evaluate the baseline extent of invasion of the different cell lines. After incubation, noninvading cells on the upper surface of the filter were removed with cotton swabs. Cells that had passed through the pores onto the lower side of the filter were fixed, stained with Hema-3 stain (Fisher Scientific), and quantified. The experiments were performed in triplicate and were repeated twice.

A further data set has as its system IL-6. Briefly: Inhibition of IL-6 expression in lung tumor cells (ELISA). The settings on record: 5 μM; HCC-827. Format: cell-based, human. As for the experimental part: Inhibition of IL-6 expression in lung tumor cells. HCC-827 cells were seeded in 6-well plates at a density of 4×10^5 cells/well. The following day, the media was replaced with fresh media containing low serum and treated the compound from Example 1 at a concentration of 5 μM. The cells were incubated at 37° C. and the supernatant was collected at 2, 4, 24, 48, and 72 hours post treatment. The supernatant was centrifuged at 2000 rpm for 3 minutes, transferred to fresh tubes and stored at −20 for further analysis. The supernatants were diluted six times with distilled water. The supernatants were then subjected to ELISA analysis for expression of Interleukin-6 (IL-6) as per the manufacturer's protocol (Hs Human IL-6 kit, R&D Systems, Minneapolis, Minn. USA, Cat #HS600B). The amount of secreted IL-6 was calculated and quantified based on the standards and plotted as bar graphs using Microsoft excel. […] Stat3 expresses IL-6 and IL-6 stimulates Stat3 activation, resulting in angiogenesis, cell cycling and cell survival.
A general note: In an ELISA, binding on a coated surface is turned into a signal by an enzyme label.

Data set [4] concerns xenografts of MDA-MB-468 cells. The data set is described as follows: MDA-MB-468 xenograft in nude mice, intratumoral injection. Format: in vivo. As for the experimental part: After 15 days mice were separated into three groups. Group 1 received PBS, group 2 received 20% hydroxypropyl-β-cyclodextrin (Trappsol) in PBS and group 3 received 10 mM of the compound in 20% Trappsol/PBS. Injections of 50 μL were made directly into the tumors. PBS is a phosphate buffered saline having pH7. Mice were treated daily for 5 days, given two days of rest and were treated for 5 days. On day 16 mice were treated and two hours later tumors were harvested, divided into two parts. The first part was frozen and the other was fixed in formalin for immunohistochemistry. Average tumor volume increased 2.3 and 2.5-fold in PBS and Trappsol/PBS vehicle controls, respectively.
Efficacy of Compound of Example 1 in animal models. […] Nu/nu Nude mice were injected in the mammary fat pad with 2×10^6 MDA-MB-468 cells suspended in matrigel. After 15 days mice were separated into three groups. Group 1 received PBS, group 2 received 20% hydroxypropyl-β-cyclodextrin (Trappsol) in PBS and group 3 received 10 mM of the compound of Example 1 in 20% Trappsol/PBS. PBS is a phosphate buffered saline with pH7. Injections of 50 μL were made directly into the tumors. Mice were treated daily for 5 days, given two days of rest and were treated for 5 days. On day 16 mice were treated and two hours later tumors were harvested, divided into two parts. The first part was frozen and the other was fixed in formalin for immunohistochemistry.

The next data set deals with normal cells. Briefly: Effect on normal cells in the cell growth assay. Format: cell-based. As for the experimental part: Lung Tumor Cell Viability Assay: H1819, H1299 and H827 lung tumor cells were seeded in 6-well plates at a density of 6×10^4, 4×10^4 and 5×10^4 cells/well, respectively. Prodrugs were dissolved in DMSO to make a stock concentration of 500 μM. The following day the cells were treated either with DMSO alone or with 0.25 μM, 0.5 μM, 1.0 μM, 2.5 μM and 5.0 μM of the compounds from Example 1, Example 16, and Example 22. Seventy two h after treatment with the drug the cells were subjected to cell viability assay using trypan blue. […] Cells were plated and after 24 hr were treated with the compound of Example 16 in DMSO. After 72 hr, cells were counted. Note that vertical axes are different for each plot.

For a further data set, the system named is VEGF. The data set is described as follows: Inhibition of VEGF expression in lung tumor cells (ELISA). Format: cell-based, human. Particulars: single dose of 5 μM; HCC-827. How it is done:
Inhibition of VEGF expression in lung tumor cells. HCC-827 were seeded in 6-well plates at a density of 4×10^5 cells. The following day, the media was replaced with fresh media containing low serum and treated either the compound from example 16 at a concentration of 5 μM. The cells were incubated at 37° C. and the supernatant was collected at 2, 4, 24, 48 and 72 hours post treatment. The supernatant was centrifuged at 2000 rpm for 3 minutes, transferred to fresh tubes and stored at −20 for further analysis. The supernatants were diluted six times with distilled water.

For `C/C(=C\C(=O)N[C@H]1CCc2cccc3c2N(C1=O)[C@H](C(=O)N[C@H](C)CCC(N)=O)C3)c1ccc(C(F)(F)P(=O)(OCOC(=O)C(C)(C)C)OCOC(=O)C(C)(C)C)cc1` [Example 1, (2E)-3-[4-[[bis[(2,2-dimethyl-1-oxopropoxy)methoxy]phosphinyl]difluoromethyl]phenyl]-but-2-enoyl-Haic-(R)-4-aminopentamide], in the data set with Akt, the pAkt levels entry is “no effect”. Further, the “colony formation in soft agar” value in data set [1] is recorded as “inhibition of colony formation”. In addition, in data set [2], the “colony formation in soft agar, four breast tumor models” value was “effectively inhibited colony formation”. The “invasion through the artificial basement membrane” value in data set [3] (5 μM in DMSO) is “inhibited invasion”. In data set [3] (5 μM), the “effectiveness in invasion assay relative to Example 8” value is recorded as “more effective”. Moreover, the “time for which IL-6 expression is inhibited” value in the data set on IL-6 worked out at 48 h. In data set [4] (10 mM in 20% Trappsol/PBS, 50 μL intratumoral), the “growth of breast tumor xenograft” value is recorded as “inhibited; also recorded: inhibits the growth”. Moreover, in data set [4] (10 mM in 20% Trappsol/PBS, 50 μL intratumoral, vehicles 2.3 and 2.5-fold), the “increase in average tumor volume” value is on record as 1.6 fold. In data set [4] (centers / interior of tumors), the “tumor center histology (cellularity, necrosis)” value is “necrosis; also recorded: notably acellular” and the “tumor vascularity (CD31 staining, microvessels)” value is given as “avascular”. In addition, the “Ki-67 staining of proliferating cells” value in data set [4] (treated tumors) is recorded as “decrease in Ki-67 staining”. In data set [4] (tumors harvested 2 h after last treatment), the “phosphorylation of STAT3 in treated tumors vs vehicle controls” value is “reduced; also recorded: strongly inhibited”.
Take `CCCC[C@H](NC(=O)/C=C(\C)c1ccc(C(F)(F)P(=O)(OCOC(=O)C(C)(C)C)OCOC(=O)C(C)(C)C)cc1)C(=O)N1C[C@H]2CC2[C@H]1C(=O)N[C@@H](CCC(N)=O)[C@@H](C)OCc1ccccc1` (stereo partly drawn) [Example 16, (2E)-3-[4-[[bis[(2,2-dimethyl-1-oxopropoxy)methoxy]phosphinyl]difluoromethyl]phenyl]-but-2-enoyl-norleucinyl-(2S,3R,4S)-methanoprolinyl-(4S,5R)-4-amino-5-benzyloxyhexamide]: the “effect on normal cells compared to vehicle DMSO” value in the data set on normal cells is recorded as “negligible effects”. Moreover, the “time up to which expression and excretion of VEGF is inhibited” value with VEGF is “up to 24 hr”.
